The values that follow come from ChEMBL document CHEMBL4304783, “Discovery of a Novel Selective Dual Peroxisome Proliferator-Activated Receptor α/δ Agonist for the Treatment of Primary Biliary Cirrhosis” (ACS Med Chem Lett, 2019).

Data set [1] deals with T1, Peroxisome proliferator-activated receptor gamma (Homo sapiens, UniProt P37231).
T1 sequence (P37231 whole entry): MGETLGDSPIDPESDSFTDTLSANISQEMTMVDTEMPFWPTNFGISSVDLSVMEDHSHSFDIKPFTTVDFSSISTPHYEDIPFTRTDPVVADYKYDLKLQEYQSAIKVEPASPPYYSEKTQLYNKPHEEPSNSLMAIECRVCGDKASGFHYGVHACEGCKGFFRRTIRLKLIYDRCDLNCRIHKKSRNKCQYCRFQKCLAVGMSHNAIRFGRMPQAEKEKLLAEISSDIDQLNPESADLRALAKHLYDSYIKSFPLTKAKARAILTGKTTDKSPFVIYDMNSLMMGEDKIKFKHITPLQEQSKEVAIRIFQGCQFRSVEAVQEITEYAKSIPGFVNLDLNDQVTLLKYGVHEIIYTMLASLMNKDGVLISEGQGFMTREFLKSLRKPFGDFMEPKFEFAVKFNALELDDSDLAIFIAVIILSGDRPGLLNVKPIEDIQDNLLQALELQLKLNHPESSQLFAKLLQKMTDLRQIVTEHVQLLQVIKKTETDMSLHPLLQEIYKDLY
Kind of data set: Agonist activity at PPARgamma (unknown origin) incubated for 3 to 16 hrs by pathhunter nuclear hormone receptor assay.

Data set [2] can be described thus: Protein binding in rat plasma at 2 uM incubated for 4 hrs by LC-MS/MS analysis. It is filed as ADME, cell-free.
The nature of data set [3]: Apparent permeability across basolateral to apical side in human Caco2 cells at 2 uM incubated for 120 mins by LC-MS/MS analysis. It is filed as ADME, cell-based. The following applies: Caco-2.
In the next data set the target is T2, Cytochrome P450 1A2 (Homo sapiens, UniProt P05177).
T2 sequence (P05177 whole entry): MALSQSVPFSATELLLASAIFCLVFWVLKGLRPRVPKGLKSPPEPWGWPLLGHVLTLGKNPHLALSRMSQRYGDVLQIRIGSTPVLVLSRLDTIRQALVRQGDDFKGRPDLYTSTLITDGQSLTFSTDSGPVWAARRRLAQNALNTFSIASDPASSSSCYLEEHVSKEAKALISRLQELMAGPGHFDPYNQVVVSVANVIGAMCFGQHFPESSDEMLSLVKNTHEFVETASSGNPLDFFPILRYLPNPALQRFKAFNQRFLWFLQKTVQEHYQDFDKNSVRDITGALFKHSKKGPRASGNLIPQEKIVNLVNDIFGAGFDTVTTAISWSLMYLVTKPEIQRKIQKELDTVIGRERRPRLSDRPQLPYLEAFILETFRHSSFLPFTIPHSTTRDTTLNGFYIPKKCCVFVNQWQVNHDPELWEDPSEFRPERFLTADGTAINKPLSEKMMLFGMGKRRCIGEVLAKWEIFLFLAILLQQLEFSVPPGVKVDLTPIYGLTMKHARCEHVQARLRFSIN
Kind of data set: Inhibition of CYP1A2 in human liver microsomes using phenacetin as substrate incubated for 10 mins followed by substrate addition further incubated for 10 mins by LC-MS/MS analysis. In kind it is ADME. In general terms: Liver microsomes are vesicles of endoplasmic reticulum, rich in cytochrome P450 enzymes.

The target in a further data set is Cytochrome P450 2C19 (Homo sapiens, UniProt P33261). Kind of data set: Inhibition of CYP2C19 in human liver microsomes using S-mephenytoin as substrate incubated for 10 mins followed by substrate addition further incubated for 10 mins by LC-MS/MS analysis. It is filed as ADME.
Cytochrome P450 2C19, sequence (P33261 whole entry): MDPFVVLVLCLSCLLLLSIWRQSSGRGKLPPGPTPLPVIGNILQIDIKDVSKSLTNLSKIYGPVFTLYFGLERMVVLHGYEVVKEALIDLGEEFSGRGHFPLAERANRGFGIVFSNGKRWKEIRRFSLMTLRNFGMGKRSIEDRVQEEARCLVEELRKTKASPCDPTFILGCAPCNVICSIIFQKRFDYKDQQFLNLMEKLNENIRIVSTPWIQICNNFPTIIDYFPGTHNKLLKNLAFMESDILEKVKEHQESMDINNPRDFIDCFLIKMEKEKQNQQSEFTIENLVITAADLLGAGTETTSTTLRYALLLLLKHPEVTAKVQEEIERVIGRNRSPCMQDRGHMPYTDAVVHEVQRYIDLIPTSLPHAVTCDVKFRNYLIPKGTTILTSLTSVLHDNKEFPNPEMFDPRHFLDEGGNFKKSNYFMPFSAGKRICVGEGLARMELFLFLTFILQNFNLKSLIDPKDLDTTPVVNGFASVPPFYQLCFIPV
For another data set, the target named is Cytochrome P450 2D6 (Homo sapiens, UniProt P10635). Kind of data set: Inhibition of CYP2D6 in human liver microsomes using dextromethorphan as substrate incubated for 10 mins followed by substrate addition further incubated for 10 mins by LC-MS/MS analysis. It is filed as ADME.
Cytochrome P450 2D6, sequence (P10635 whole entry): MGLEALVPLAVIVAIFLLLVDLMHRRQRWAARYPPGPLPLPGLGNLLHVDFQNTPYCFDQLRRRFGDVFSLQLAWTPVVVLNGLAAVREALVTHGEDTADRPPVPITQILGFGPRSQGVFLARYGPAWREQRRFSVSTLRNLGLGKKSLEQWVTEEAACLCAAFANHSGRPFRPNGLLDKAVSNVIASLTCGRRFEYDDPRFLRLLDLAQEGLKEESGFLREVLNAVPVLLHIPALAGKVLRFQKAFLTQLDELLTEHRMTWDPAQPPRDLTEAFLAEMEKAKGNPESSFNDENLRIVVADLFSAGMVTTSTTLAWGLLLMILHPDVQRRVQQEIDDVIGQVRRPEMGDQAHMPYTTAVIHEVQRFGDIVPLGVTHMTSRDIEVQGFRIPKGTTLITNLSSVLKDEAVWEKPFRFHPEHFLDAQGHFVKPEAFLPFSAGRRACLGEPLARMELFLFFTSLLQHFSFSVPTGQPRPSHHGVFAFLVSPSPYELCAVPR
The target of a further data set is Cytochrome P450 3A4 (Homo sapiens, UniProt P08684). Kind of data set: Inhibition of CYP3A4 in human liver microsomes using midazolam as substrate incubated for 10 mins followed by substrate addition further incubated for 10 mins by LC-MS/MS analysis. It is filed as ADME.
Cytochrome P450 3A4, sequence (P08684 whole entry): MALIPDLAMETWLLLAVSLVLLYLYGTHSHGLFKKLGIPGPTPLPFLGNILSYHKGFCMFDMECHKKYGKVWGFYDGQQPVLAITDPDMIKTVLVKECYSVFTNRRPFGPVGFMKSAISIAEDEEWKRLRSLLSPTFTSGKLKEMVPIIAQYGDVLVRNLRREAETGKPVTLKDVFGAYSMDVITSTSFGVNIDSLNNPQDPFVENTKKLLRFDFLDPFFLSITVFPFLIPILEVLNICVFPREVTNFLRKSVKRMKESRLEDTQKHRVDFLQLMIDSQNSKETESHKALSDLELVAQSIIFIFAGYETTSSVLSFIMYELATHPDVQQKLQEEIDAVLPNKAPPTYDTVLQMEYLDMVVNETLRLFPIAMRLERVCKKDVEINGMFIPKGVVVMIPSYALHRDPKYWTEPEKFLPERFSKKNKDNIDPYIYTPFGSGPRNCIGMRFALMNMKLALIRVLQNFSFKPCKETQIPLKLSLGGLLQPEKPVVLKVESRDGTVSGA
Data set [4] deals with Voltage-gated inwardly rectifying potassium channel KCNH2 (Homo sapiens, UniProt Q12809). Kind of data set: Inhibition of human ERG expressed in CHO-K1 cells by whole-cell patch clamp assay. In kind it is cell-based. On the technique in general: In patch-clamp work, channel activity is measured electrically.
Voltage-gated inwardly rectifying potassium channel KCNH2, sequence (Q12809 whole entry): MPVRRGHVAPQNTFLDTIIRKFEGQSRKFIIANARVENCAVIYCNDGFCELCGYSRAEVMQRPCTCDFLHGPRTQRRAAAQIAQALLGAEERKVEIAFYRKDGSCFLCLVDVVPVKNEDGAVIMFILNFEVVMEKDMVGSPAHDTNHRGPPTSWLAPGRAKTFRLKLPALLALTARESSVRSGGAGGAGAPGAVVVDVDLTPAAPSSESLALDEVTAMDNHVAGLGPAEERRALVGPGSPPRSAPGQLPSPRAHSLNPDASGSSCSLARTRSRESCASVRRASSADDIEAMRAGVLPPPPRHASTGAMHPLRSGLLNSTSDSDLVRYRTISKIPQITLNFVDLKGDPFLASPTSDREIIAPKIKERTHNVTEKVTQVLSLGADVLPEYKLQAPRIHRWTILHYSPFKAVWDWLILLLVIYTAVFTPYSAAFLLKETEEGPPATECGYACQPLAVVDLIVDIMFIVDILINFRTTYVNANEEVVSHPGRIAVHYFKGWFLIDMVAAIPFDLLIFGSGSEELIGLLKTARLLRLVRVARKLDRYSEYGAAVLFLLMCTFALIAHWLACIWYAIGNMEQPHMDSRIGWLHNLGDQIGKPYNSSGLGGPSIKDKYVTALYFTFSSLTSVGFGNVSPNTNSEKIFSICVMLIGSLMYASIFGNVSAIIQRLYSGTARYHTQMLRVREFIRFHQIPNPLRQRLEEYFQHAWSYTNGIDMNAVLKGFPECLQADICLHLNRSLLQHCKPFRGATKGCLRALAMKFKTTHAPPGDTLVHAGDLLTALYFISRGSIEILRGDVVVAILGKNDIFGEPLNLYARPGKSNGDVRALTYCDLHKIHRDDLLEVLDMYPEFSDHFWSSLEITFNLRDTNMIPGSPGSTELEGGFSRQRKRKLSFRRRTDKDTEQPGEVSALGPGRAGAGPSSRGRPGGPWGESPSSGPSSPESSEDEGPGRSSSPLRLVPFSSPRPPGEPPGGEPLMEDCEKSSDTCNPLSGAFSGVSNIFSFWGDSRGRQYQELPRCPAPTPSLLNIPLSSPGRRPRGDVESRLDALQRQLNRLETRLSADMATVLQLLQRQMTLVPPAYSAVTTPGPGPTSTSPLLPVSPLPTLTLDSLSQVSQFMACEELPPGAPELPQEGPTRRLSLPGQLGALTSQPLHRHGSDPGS
The nature of data set [5]: Clearance in C57BL/6J mouse at 1 mg/kg, iv measured upto 24 hrs by LC-MS/MS analysis. The note with it: in vivo. In kind it is ADME, organism-based.
Data set [6] is described as follows: AUC (0 to last) in C57BL/6J mouse at 1 mg/kg, iv measured upto 24 hrs by LC-MS/MS analysis. It is filed as ADME, organism-based. On the set-up: dose 1 mg/kg, time 0 - last, route intravenous. The following applies: in vivo.
The nature of data set [7]: Tmax in C57BL/6J mouse at 10 mg/kg, po measured upto 24 hrs by LC-MS/MS analysis. The following applies: in vivo. In kind it is ADME, organism-based.
Data set [8] in a line: Volume of distribution at steady state in Sprague-Dawley rat at 1 mg/kg, iv measured upto 24 hrs by LC-MS/MS analysis. In kind it is ADME, organism-based. The note with it: in vivo, read-out: Vdss.
A short description of data set [9]: Clearance in Sprague-Dawley rat at 1 mg/kg, iv measured upto 24 hrs by LC-MS/MS analysis. It is filed as ADME, organism-based. The note with it: in vivo.
Data set [10] in a line: AUC (0 to last) in Sprague-Dawley rat at 1 mg/kg, iv measured upto 24 hrs by LC-MS/MS analysis. In kind it is ADME, organism-based. The arrangement: dose 1 mg/kg, route intravenous, time 0 - last. The note with it: in vivo.
The subject of data set [11] is Rattus norvegicus. Kind of data set: Hepatoprotective activity in Sprague-Dawley rat assessed as reduction in ANIT-stimulated total bilirubin level at 3 mg/kg, ig administered for 8 days by biochemical analysis. It is filed as functional, organism-based.
For data set [12], the system named is Rattus norvegicus. Kind of data set: Hepatoprotective activity in Sprague-Dawley rat assessed as reduction in ANIT-stimulated inflammatory score at 3 mg/kg, ig administered for 8 days by hematoxylin and eosin staining based mopho-metric analysis relative to control. In kind it is functional. The arrangement: scale not given: the % may be the effect or the level left.

The next data set deals with T3, Bile acid receptor (Homo sapiens, UniProt Q96RI1).
T3 sequence (Q96RI1 whole entry): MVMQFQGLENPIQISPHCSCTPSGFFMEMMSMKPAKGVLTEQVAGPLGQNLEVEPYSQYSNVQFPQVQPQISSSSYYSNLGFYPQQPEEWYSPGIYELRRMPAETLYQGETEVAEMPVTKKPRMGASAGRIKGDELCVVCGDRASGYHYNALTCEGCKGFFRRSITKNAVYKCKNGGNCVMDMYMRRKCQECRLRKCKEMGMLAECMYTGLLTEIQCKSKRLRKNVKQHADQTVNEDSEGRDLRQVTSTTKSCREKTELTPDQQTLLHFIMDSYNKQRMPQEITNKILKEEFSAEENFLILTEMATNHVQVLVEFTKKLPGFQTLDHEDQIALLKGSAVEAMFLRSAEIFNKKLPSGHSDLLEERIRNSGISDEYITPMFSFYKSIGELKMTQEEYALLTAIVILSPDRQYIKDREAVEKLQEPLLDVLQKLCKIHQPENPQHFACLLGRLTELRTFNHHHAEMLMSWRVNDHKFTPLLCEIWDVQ
Kind of data set: Binding affinity to human recombinant GST-tagged FXR LBD (193-472 residues) expressed in baculovirus infected insect cells incubated for 1 hr by luminometry.

What is called EC50 is the concentration giving half of the maximal effect. As usually defined, the fraction unbound is free concentration divided by total concentration. For orientation: Papp B→A means how fast a substance crosses the layer from the basolateral side. For orientation: IC50 means the concentration needed to halve the response being measured. By clearance is commonly meant a measure of how efficiently the substance is removed, as volume per time. For orientation: AUC(0-t) means exposure summed from dosing to a finite time, without extrapolation to infinity. Usually Tmax stands for the time at which the peak concentration occurs.

Active and inactive are the calls of the source. The rule behind the calls is not given here. Bounds are passed on as bounds.

The compound `Cc1cc(Cc2cc(-c3ccc(Br)cc3)on2)cc(C)c1OC(C)(C)C(=O)O` gave an EC50 in [1] of 2.94 µM. For the same compound, in data set [2], the unbound share (fraction unbound) at 4 h, 2 µM is under 0.001. Moreover, the Papp B→A at 2 h, 2 µM in data set [3] was found to be 0.2 ×10⁻⁶ cm/s. In addition, the IC50 against Cytochrome P450 1A2 was 10 µM; on Cytochrome P450 2C19, over 50 µM; against Cytochrome P450 2D6, over 50 µM; against Cytochrome P450 3A4 it was over 50 µM; in data set [4], over 30 µM; on Bile acid receptor, over 50 µM. For the same compound, the clearance is 3.53 mL/min/kg in [5] and 0.35 mL/min/kg in [9]. In addition, the AUC(0-t) at 24 h in [6] turned out to be 10.6 µM·h; in data set [10] it was 105 µM·h. The Tmax in data set [7] is 19.8 min. The Vd in data set [8] was determined as 0.16 L/kg. The result in the data set with Rattus norvegicus [11] was Active. Besides, in the data set on Rattus norvegicus [12], the Activity was 30%.
